This is an account of results in ChEMBL document CHEMBL5136995, “Structure-based optimization of hydroxylactam as potent, cell-active inhibitors of lactate dehydrogenase” (Bioorg Med Chem Lett, 2022).

The target in series [1] is L-lactate dehydrogenase A chain (Homo sapiens, UniProt P00338). In words: Inhibition of LDHA (unknown origin).
Series [2] addresses L-lactate dehydrogenase B chain (Homo sapiens, UniProt P07195). In words: Inhibition of LDHB (unknown origin).
Series [3] in a line: Lipophilicity, logD of compound. Format: physicochemical. To be noted: octanol/water.
The nature of series [4]: Inhibition of lactate production in human MIA PaCa-2 cells. Format: functional, cell-based.
A short description of series [5]: Plasma protein binding in mouse. Type of series: ADME, cell-free. To be noted: read-out: PPB.
The nature of series [6]: Apparent permeability across apical to basolateral side in MDCK cells at 100 uM by HPLC analysis. Format: ADME, cell-based, Canis lupus familiaris. To be noted: dog.

pIC50: −log10 of the molar value.

Chain of L-lactate dehydrogenase B chain (P07195 whole entry): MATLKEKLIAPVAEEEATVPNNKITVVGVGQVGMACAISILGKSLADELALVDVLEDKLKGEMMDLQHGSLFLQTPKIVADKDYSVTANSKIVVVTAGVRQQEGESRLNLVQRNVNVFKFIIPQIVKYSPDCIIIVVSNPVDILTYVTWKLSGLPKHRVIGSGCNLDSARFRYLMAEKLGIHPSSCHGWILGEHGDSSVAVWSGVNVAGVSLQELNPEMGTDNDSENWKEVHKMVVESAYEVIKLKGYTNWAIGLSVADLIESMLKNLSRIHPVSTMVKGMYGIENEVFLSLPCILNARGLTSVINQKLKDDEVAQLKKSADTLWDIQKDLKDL

In turn, `O=C1O[C@@](c2ccsc2)(c2cccc(Nc3ccc(F)cc3)c2)CC(O)=C1Sc1ccccc1Cl` showed a negative logarithm of the IC50 (pIC50) in series [1] of 8.40.

In series [1], `O=C1OC(c2cccs2)(c2cccs2)CC(O)=C1Sc1ccccc1Cl` showed a pIC50 of 7.05.

For the compound `O=C1OC(c2ccccn2)(c2ccccn2)CC(O)=C1Sc1ccccc1Cl`, the pIC50 in series [2] was 5.54; in series [1], 5.92.

Consider `O=C1N[C@@](c2cccc(Nc3ccc(F)cc3)n2)(c2cccc(Nc3ccc(F)c(F)c3)n2)CC(O)=C1Sc1ccccc1Cl`, for which, in series [1], the negative-log IC50 (pIC50) is 8.43.

Regarding `O=C1OC(c2ccccc2)(c2ccccc2)CC(O)=C1Sc1ccccc1Cl`, the negative-log IC50 (pIC50) in series [2] was 5.51; in series [1] it was 6.00.

Consider `O=C1O[C@](c2ccsc2)(c2cccc(Nc3ccc(F)cc3)c2)CC(O)=C1Sc1ccccc1Cl`, for which the pIC50 in series [1] was 7.44.

In series [1], `O=C1OC(c2ccsc2)(c2cccc(NCC(F)(F)F)c2)CC(O)=C1Sc1ccccc1Cl` (racemic) showed a pIC50 of 7.18.

`CC(=O)Nc1cccc(C2(c3ccsc3)CC(O)=C(Sc3ccccc3Cl)C(=O)O2)c1` (racemic) gave a negative-log IC50 (pIC50) in series [1] of 7.37.

`O=C1OC(c2ccccc2)(c2ccccn2)CC(O)=C1Sc1ccccc1Cl` (stereo in doubt; 2) had a negative logarithm of the IC50 (pIC50) in series [1] of 6.04.

In series [1], `O=C1OC(c2ccccc2)(c2ccccn2)CC(O)=C1Sc1ccccc1Cl` (stereo in doubt; 3) had a pIC50 of 5.62.

As for `O=C1OC(c2ccccc2)(c2ccsc2)CC(O)=C1Sc1ccccc1Cl` (stereo in doubt; 5), the negative logarithm of the IC50 (pIC50) in series [1] was 7.05.

Turning to `O=C1OC(c2ccccc2)(c2ccsc2)CC(O)=C1Sc1ccccc1Cl` (stereo in doubt; 6), the pIC50 in series [1] was 6.37.

Regarding `O=C1OC(c2ccccc2)(c2cccs2)CC(O)=C1Sc1ccccc1Cl` (stereo in doubt; 7), the pIC50 in series [2] is 5.89; in series [1], 6.92.

Take `O=C1OC(c2ccccc2)(c2cccs2)CC(O)=C1Sc1ccccc1Cl` (stereo in doubt; 8): the negative-log IC50 (pIC50) in series [2] was 5.82; in series [1] it was 6.66.

`O=C1OC(c2ccccc2)(c2cscn2)CC(O)=C1Sc1ccccc1Cl` (stereo in doubt; 9): the pIC50 in series [2] was 6.26; in series [1], 6.74.

Take `O=C1OC(c2ccccc2)(c2cscn2)CC(O)=C1Sc1ccccc1Cl` (stereo in doubt; 10): the pIC50 in series [2] is 5.55; in series [1], 5.96.

For the compound `O=C1OC(c2ccsc2)(c2ccccn2)CC(O)=C1Sc1ccccc1Cl` (stereo in doubt; 11), the negative logarithm of the IC50 (pIC50) in series [2] is 6.27; in series [1], 6.89.

As for `O=C1OC(c2ccsc2)(c2ccccn2)CC(O)=C1Sc1ccccc1Cl` (stereo in doubt; 12), the pIC50 in series [2] was 5.49; in series [1] it was 6.01.

`O=C1OC(c2ccccc2)(c2ccccc2O)CC(O)=C1Sc1ccccc1Cl` (stereo in doubt; 14): the negative-log IC50 (pIC50) in series [2] is 7.12; in series [1], 7.59.

For the compound `O=C1OC(c2ccccc2)(c2ccccc2O)CC(O)=C1Sc1ccccc1Cl` (stereo in doubt; 15), the negative-log IC50 (pIC50) in series [2] was 6.02; in series [1], 6.37.

In turn, `O=C1OC(c2ccsc2)(c2ccccc2O)CC(O)=C1Sc1ccccc1Cl` (stereo in doubt; 16) showed a negative logarithm of the IC50 (pIC50) in series [1] of 8.66.

Take `O=C1OC(c2ccsc2)(c2ccccc2O)CC(O)=C1Sc1ccccc1Cl` (stereo in doubt; 17): the pIC50 in series [1] is 7.66.

For the compound `O=C1OC(c2ccsc2)(c2ccccc2F)CC(O)=C1Sc1ccccc1Cl` (stereo in doubt; 18), in series [1], the negative logarithm of the IC50 (pIC50) is 6.66.

In series [1], `O=C1OC(c2ccsc2)(c2ccccc2F)CC(O)=C1Sc1ccccc1Cl` (stereo in doubt; 19) gave a pIC50 of 6.35.

With `Nc1cccc(C2(c3ccsc3)CC(O)=C(Sc3ccccc3Cl)C(=O)O2)c1` (stereo in doubt; 20), the negative logarithm of the IC50 (pIC50) in series [1] is 7.89.

For `Nc1cccc(C2(c3ccsc3)CC(O)=C(Sc3ccccc3Cl)C(=O)O2)c1` (stereo in doubt; 21), in series [1], the negative logarithm of the IC50 (pIC50) is 6.72.

Regarding `Nc1cccc(C2(c3ccccc3)CC(O)=C(Sc3ccccc3Cl)C(=O)O2)c1` (stereo in doubt; 22), the pIC50 in series [2] was 6.60; in series [1], 6.89.

Turning to `Nc1cccc(C2(c3ccccc3)CC(O)=C(Sc3ccccc3Cl)C(=O)O2)c1` (stereo in doubt; 23), the negative logarithm of the IC50 (pIC50) was 5.42 in series [2] and 6.35 in series [1].

Compound `O=C1OC(c2ccsc2)(c2cccc(Nc3ccc(F)cn3)c2)CC(O)=C1Sc1ccccc1Cl` (stereo in doubt; 28) showed a negative logarithm of the IC50 (pIC50) in series [1] of 8.54.

In turn, `O=C1OC(c2ccsc2)(c2cccc(Nc3ccc(F)cn3)c2)CC(O)=C1Sc1ccccc1Cl` (stereo in doubt; 29) showed a pIC50 in series [1] of 7.20.

Consider `O=C1OC(c2ccsc2)(c2cccc(Nc3ccc(F)cc3)n2)CC(O)=C1Sc1ccccc1Cl` (stereo in doubt; 30), for which the negative-log IC50 (pIC50) in series [1] is 8.54.

The compound `O=C1OC(c2ccsc2)(c2cccc(Nc3ccc(F)cc3)n2)CC(O)=C1Sc1ccccc1Cl` (stereo in doubt; 31) showed a negative-log IC50 (pIC50) in series [1] of 8.16.

On to `O=C1NC(c2cccc(Nc3ccc(F)c(F)c3)n2)(c2cccc(NC3CCCCC3)n2)CC(O)=C1Sc1ccccc1Cl` (stereo in doubt; 34), for which the pH-dependent lipophilicity (logD) in series [3] was 2.6. Moreover, the pIC50 in series [4] was 5.66; in series [1], 9.05.

For the compound `O=C1NC(c2cccc(Nc3ccc(F)c(F)c3)n2)(c2cccc(NC3CCCCC3)n2)CC(O)=C1Sc1ccccc1Cl` (stereo in doubt; 35), in series [1], the negative logarithm of the IC50 (pIC50) is 8.36.

Turning to `O=C1NC(c2cccc(Nc3ccc(F)c(F)c3)n2)(c2cccc(NC3CCOCC3)n2)CC(O)=C1Sc1ccccc1Cl` (stereo in doubt; 36), in series [3], the logD was 2.4. Moreover, the negative logarithm of the IC50 (pIC50) in series [4] was 5.14; in series [1] it was 8.57.

`O=C1NC(c2cccc(Nc3ccc(F)c(F)c3)n2)(c2cccc(NC3CCOCC3)n2)CC(O)=C1Sc1ccccc1Cl` (stereo in doubt; 37) had a pIC50 in series [1] of 7.26.

As for `O=C1NC(c2ccsc2)(c2cccc(Nc3ccc(F)c(F)c3)n2)CC(O)=C1Sc1ccccc1Cl` (stereo in doubt; 38), the log distribution coefficient (logD) in series [3] was 1.1. The negative-log IC50 (pIC50) in series [4] is 5.04; in series [1] it was 8.00.

Compound `O=C1NC(c2ccsc2)(c2cccc(Nc3ccc(F)c(F)c3)n2)CC(O)=C1Sc1ccccc1Cl` (stereo in doubt; 39) had a pIC50 in series [1] of 7.12.

The compound `O=C1NC(c2cccc(NCCC3CC3)n2)(c2cccc(Nc3ccc(F)c(F)c3)n2)CC(O)=C1Sc1ccccc1Cl` (stereo in doubt; 40) had a negative-log IC50 (pIC50) in series [1] of 7.89.

As for `O=C1NC(c2cccc(NCCC3CC3)n2)(c2cccc(Nc3ccc(F)c(F)c3)n2)CC(O)=C1Sc1ccccc1Cl` (stereo in doubt; 41), the pIC50 in series [1] is 6.72.

In series [3], `O=C1NC(c2cccc(NCc3ccc(F)cc3)n2)(c2cccc(Nc3ccc(F)c(F)c3)n2)CC(O)=C1Sc1ccccc1Cl` (stereo in doubt; 42) had a logD of 2.5. This compound also showed a pIC50 in series [1] of 8.07.

`O=C1NC(c2cccc(NCc3ccc(F)cc3)n2)(c2cccc(Nc3ccc(F)c(F)c3)n2)CC(O)=C1Sc1ccccc1Cl` (stereo in doubt; 43) showed a negative logarithm of the IC50 (pIC50) in series [1] of 6.80.

On to `O=C1NC(c2cccc(Nc3ccc(F)c(F)c3)n2)(c2cccc(Oc3ccccc3)n2)CC(O)=C1Sc1ccccc1Cl` (stereo in doubt; 44), for which the logD in series [3] turned out to be 2.6. Further, the negative logarithm of the IC50 (pIC50) was 5.28 in series [4] and 8.60 in series [1].

Take `O=C1NC(c2cccc(Nc3ccc(F)c(F)c3)n2)(c2cccc(Oc3ccccc3)n2)CC(O)=C1Sc1ccccc1Cl` (stereo in doubt; 45): the pIC50 in series [1] is 8.49.

For `O=C1NC(c2cccc(Nc3ccc(F)c(F)c3)n2)(c2cccc(Oc3cccc4ncccc34)n2)CC(O)=C1Sc1ccccc1Cl` (stereo in doubt; 46), in series [3], the logD is 2.2. Further, the pIC50 in series [2] was 7.60; in series [4], 5.44; in series [1] it was 8.42.

Take `O=C1NC(c2cccc(Nc3ccc(F)c(F)c3)n2)(c2cccc(Oc3cccc4ncccc34)n2)CC(O)=C1Sc1ccccc1Cl` (stereo in doubt; 47): the values for the pIC50 in series [2] and in series [1] were 6.19 and 7.17, respectively.

As to `O=C1NC(c2ccc(N3CCOCC3)cc2)(c2cccc(Nc3ccc(F)cc3)n2)CC(O)=C1Sc1ccccc1Cl` (stereo in doubt; 48), in series [3], the logD stood at 2. In series [1], this compound showed a negative-log IC50 (pIC50) of 8.60.

The compound `O=C1NC(c2ccc(N3CCOCC3)cc2)(c2cccc(Nc3ccc(F)cc3)n2)CC(O)=C1Sc1ccccc1Cl` (stereo in doubt; 49) showed a pIC50 in series [1] of 7.96.

With `O=C1NC(c2ccc(N3CCOCC3)cc2)(c2cccc(Oc3ccc(F)cc3)n2)CC(O)=C1Sc1ccccc1Cl` (stereo in doubt; 50), the logD in series [3] is 1.9. Also, the negative logarithm of the IC50 (pIC50) is 5.77 in series [4] and 8.74 in series [1]. Also, the fraction unbound in series [5] was 0.001. In addition, the Papp A→B at 100 µM in series [6] was determined as 2.2 ×10⁻⁶ cm/s.

On to `O=C1NC(c2ccc(N3CCOCC3)cc2)(c2cccc(Oc3ccc(F)cc3)n2)CC(O)=C1Sc1ccccc1Cl` (stereo in doubt; 51), for which the negative-log IC50 (pIC50) in series [1] is 7.43.

As usually defined, the pIC50 is the IC50 on a negative log10 scale, so that one unit is a factor of ten. The low end stands for a large IC50, the high end for a small IC50. The logD is lipophilicity at a set pH, counting ionised and neutral species. Read a low logD as lower lipophilicity. What is called Papp A→B is how fast a substance crosses the layer from the apical side.
